# Assay results: patent US20020028938A1, “Prostaglandin endoperoxide H synthase biosynthesis inhibitors” (priority 1997, published 2002)
# Experiments:
# [1] = molecular target: T1, recombinant human Cox-1 (r-hu Cox1) (Homo sapiens, UniProt P23219); assay: Recombinant human PGHS-1 enzyme assay (RHUCX1); format: biochemical; details: for inhibition at 100 µM / inhibition at 10 µM: read-out: RHUCX1 % Inh. at Dose
# T1 construct: made in house; host or cells: baculovirus/Sf9 insect cells (microsomes)
# In short: (§1)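 IC50 values come from linear regression of percent inhibition, itself calculated against the mean of untreated controls. The underlying signal is PGE2, determined by EIA after a brief room-temperature reaction (2.5 minutes) terminated with acid and then base-neutralized.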
# [2] = molecular target: T2, recombinant human Cox-2 (r-hu Cox-2) (Homo sapiens, UniProt P35354); assay: Recombinant human PGHS-2 enzyme assay (RHUCX2); format: biochemical; details: for IC50: read-out: RHUCX2 IC50 (parenthetical value)
# T2 construct: made in house; host or cells: baculovirus/Sf9 insect cells (microsomes)
# T2 sequence (P35354 18-604): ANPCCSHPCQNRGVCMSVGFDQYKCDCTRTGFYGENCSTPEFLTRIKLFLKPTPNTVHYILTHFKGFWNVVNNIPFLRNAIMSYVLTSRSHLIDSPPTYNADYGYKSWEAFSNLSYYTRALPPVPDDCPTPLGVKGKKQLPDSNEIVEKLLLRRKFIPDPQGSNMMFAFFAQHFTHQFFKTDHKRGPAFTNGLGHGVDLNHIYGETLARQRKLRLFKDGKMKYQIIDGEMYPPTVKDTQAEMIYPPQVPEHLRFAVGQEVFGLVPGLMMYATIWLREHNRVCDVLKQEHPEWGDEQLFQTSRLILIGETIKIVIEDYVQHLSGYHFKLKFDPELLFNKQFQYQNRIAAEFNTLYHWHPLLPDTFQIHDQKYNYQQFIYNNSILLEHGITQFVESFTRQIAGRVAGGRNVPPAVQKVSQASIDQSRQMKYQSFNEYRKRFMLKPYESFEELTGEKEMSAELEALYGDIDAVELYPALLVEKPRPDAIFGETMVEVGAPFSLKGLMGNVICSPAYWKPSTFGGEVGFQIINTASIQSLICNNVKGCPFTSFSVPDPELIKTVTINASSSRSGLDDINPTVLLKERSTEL
# In short: as §1
# [3] = molecular target: T3, human amnionic whole cell cyclooxygenase-2 (WISH cells) (Homo sapiens, UniProt P35354); assay: IL-1β induced PGE2 production in WISH cells; format: cell-based; details: read-out: Wish IC50 (parenthetical value)
# T3 construct: endogenous in cells; host or cells: human amnionic WISH cells, induced with IL-1beta
# T3 sequence (P35354 18-604): T2 sequence (P35354 18-604)
# In short: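 PGE2 was quantified by enzyme immunoassay (optical density read) against standards made up in the matching medium. WISH cells at 80% confluence, washed and placed in serum-free Neuman-Tytell medium, received 5 ng/ml IL-1β plus test compound or DMSO vehicle (0.01% v/v).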
# [4] = test system: air pouch prostaglandin biosynthesis (Cox-2); assay: Carrageenan induced air pouch prostaglandin biosynthesis model (CAP); format: in vivo, rat; details: 3 mpk, rat; for inhibition in vivo at 3 mg/kg: 4 h, read-out: CAP % Inhib. @ 3 mpk
# Description: To compare the mean responses of the treatment groups, analysis of variance was applied. Percent inhibition values were determined by comparing the individual treatment mean values to the mean of the control group. Linear regression was used to estimate IC50's/ED50's in appropriate assays.
# Carrageenan induced air pouch prostaglandin biosynthesis model (CAP) Air pouches are formed in the backs of male Sprague Dawley rats by injecting 20 mL of sterile air on day 0. Three days later the pouch was reinflated with an additional 10 mL of sterile air. On day 7, 1 mL of saline containing 0.2 % lambda carrageenan (Sigma Chemical Co.) is injected into the pouch to induce the inflammatory reaction that is characterized by the release of prostaglandins. Test compounds are dosed at 0.1 to 10 mg/kg 30 minutes prior to carrageenan. Four hours after the carrageenan injection the pouch is lavaged and levels of prostaglandins are determined by enzyme immuno-assay using commercially available kits. […] Values for Cox-2 inhibition that are parenthetical indicate ED50 values.
# [5] = molecular target: T4, Human Whole Platelet Cyclooxygenase-1 (Homo sapiens, UniProt P23219); assay: Human Whole Platelet Cyclooxygenase-1 assay (HWPX); format: cell-based; details: read-out: HWPX IC50 (parenthetical value)
# T4 construct: from tissue; host or cells: human blood: isolated platelets (A4) or heparinised whole blood (A9)
# Description: Blood from normal healthy volunteers is collected into tubes containing ACD (acid citrate dextrose) as the anticoagulant. This blood is centrifuged at 175×g to prepare platelet rich plasma. The platelet rich plasma is then centrifuged at 100×g to pellet the white blood cells, leaving the platelets in the supernatant. The supernatant is layered on a cushion of 0.7 mL of 10% bovine serum albumin in Tyrodes solution (Gibco; Grand Island, N.Y.) and then centrifuged at 1000×g. The resulting supernatant from this centrifuigation is then removed and 11 mL of Tyrodes solution is added to the remaining pellet of platelets. The platelets are then aliquoted at 120 μl into a 96 well plate. Experimental compounds are added and allowed to pre-incubate for 10 minutes. At the end of this pre-incubation period, the calcium ionophore A23187 is added to a final concentration of 8.8 μM and the incubation is continued for ten minutes. The reaction is stopped by adding cold 6 mM EDTA, the incubation mixture is centrifuged at 220×g, and the supernatants are then analyzed for thromboxane using a commercial kit from Cayman Chemical (Ann Arbor, Mich.
# [6] = 0.01 μM, read-out: RHUCX2 % Inh. at Dose
# [7] = 0.1 μM, read-out: RHUCX2 % Inh. at Dose
# [8] = 1 μM, read-out: RHUCX2 % Inh. at Dose
# T1 sequence (P23219 24-599): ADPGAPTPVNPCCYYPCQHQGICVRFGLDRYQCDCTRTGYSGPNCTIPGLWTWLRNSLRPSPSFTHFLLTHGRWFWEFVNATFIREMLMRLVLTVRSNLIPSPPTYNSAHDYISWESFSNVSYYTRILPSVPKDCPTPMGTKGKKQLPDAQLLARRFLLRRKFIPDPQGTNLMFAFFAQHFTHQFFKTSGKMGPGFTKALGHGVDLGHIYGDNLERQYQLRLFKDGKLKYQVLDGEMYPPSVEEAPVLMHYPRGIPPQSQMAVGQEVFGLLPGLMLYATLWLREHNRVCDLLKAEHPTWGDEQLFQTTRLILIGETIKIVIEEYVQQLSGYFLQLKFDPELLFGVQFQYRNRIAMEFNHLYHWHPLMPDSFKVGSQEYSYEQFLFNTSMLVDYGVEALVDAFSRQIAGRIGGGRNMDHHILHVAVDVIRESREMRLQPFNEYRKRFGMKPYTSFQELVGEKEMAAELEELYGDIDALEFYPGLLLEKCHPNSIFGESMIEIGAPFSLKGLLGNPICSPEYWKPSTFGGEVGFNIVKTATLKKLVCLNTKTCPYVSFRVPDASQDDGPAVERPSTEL
# T4 sequence (P23219 24-599): as above
melting point,inhibition at 100 µM ([1]; 100 μM),IC50 [2],Molecule,inhibition in vivo at 3 mg/kg [4],other results
–,–,–,"2-(2,3,3-Trifluorophenyl)-4-(4-fluorophenyl)-5-[4-(aminosulfonyl)phenyl]-3(2H)-pyridazinone [Example 450]",–,RHUCX1 % Inh. at Dose (μM) ([1]; 100 μM): 29 @ 100%; RHUCX2 % Inh. at Dose (μM) ([2]; 0.01 μM): 22 @ 0.01%; RHUCX2 % Inh. at Dose (μM) ([2]; 0.1 μM): 40 @ 0.1%; RHUCX2 % Inh. at Dose (μM) ([2]; 1 μM): 87 @ 1%; IC50 [3]: 50 nM; CAP % Inhib. @ 3 mpk [4]: 86%
142 to 144 °C,–,–,"CC(C)COc1c(-c2ccc(S(C)(=O)=O)c(F)c2)cnn(-c2ccc(F)c(Cl)c2)c1=O [Example 205, 2-(3-Chloro-4-fluorophenyl)-4-(2-methylpropoxy)-5-[3-fluoro-4-(methylsulfonyl)phenyl]-3(2H)-pyridazinone]",54%,–
161 to 163 °C,–,–,"CS(=O)(=O)c1ccc(-c2cnn(-c3ccc(F)c(F)c3)c(=O)c2Cc2cccc(F)c2)cc1 [Example 243, 2-(3,4-Difluorophenyl)-4-(3-fluorobenzyl)-5-[4-(methylsulfonyl)phenyl]-3(2H)-pyridazinone]",7%,IC50 [3]: 30 nM
55 to 58 °C,0%,40 nM,"CC(C)CCc1c(-c2ccc(S(C)(=O)=O)cc2)cnn(-c2ccc(F)c(Cl)c2)c1=O [Example 257, 2-(3-Chloro-4-fluorophenyl)-4-(3-methylbutyl)-5-[4-(methylsulfonyl)phenyl]-3(2H)-pyridazinone]",60%,–
116 to 117 °C,14%,–,"CC(C)COc1c(-c2ccc(S(C)(=O)=O)cc2)cnn(-c2ccc(F)c(F)c2)c1=O [Example 346, 2-(3,4-Difluorophenyl)-4-(2-methylpropoxy)-5-[4-(methylsulfonyl)phenyl]-3(2H)-pyridazinone]",49.5%,"inhibition at 0.01 µM [2, 6]: 48%; inhibition at 0.1 µM [2, 7]: 76%; inhibition at 1 µM [2, 8]: 94%"
100 to 102 °C,3%,–,"CCC(C)CCOc1c(-c2ccc(S(C)(=O)=O)cc2)cnn(-c2ccc(F)c(F)c2)c1=O (stereo not shown) [Example 351, 2-(3,4-Difluorophenyl)-4-(3-methylpentyloxy)-5-[4-(methylsulfonyl)phenyl]-3(2H)-pyridazinone]",0%,"inhibition at 0.01 µM [2, 6]: 42%; inhibition at 0.1 µM [2, 7]: 63%; inhibition at 1 µM [2, 8]: 91%"
–,3%,11 nM,"CC(C)CSc1c(-c2ccc(S(C)(=O)=O)cc2)cnn(-c2cccc(Cl)c2)c1=O [Example 361, 2-(3-Chlorophenyl)-4-[2-(methylpropyl)thiol]-5-[4-(methylsulfonyl)phenyl]-3(2H)-pyridazinone]",65%,–
–,–,–,CC(C)CCc1c(-c2ccc(S(C)(=O)=O)cc2)cnn(-c2ccc(F)cc2)c1=O [Example 378],–,CAP % Inhib. @ 3 mpk [4]: 59%
–,–,–,Cc1cc(-c2c(-c3ccc(S(N)(=O)=O)cc3)cnn(-c3ccc(F)cc3)c2=O)ccc1F [Example 390],–,RHUCX1 % Inh. at Dose (μM) ([1]; 1 μM): 45 @ 1%; RHUCX1 % Inh. at Dose (μM) ([1]; 10 μM): 88 @ 10%; RHUCX2 % Inh. at Dose (μM) ([2]; 0.1 μM): 60 @ 0.1%; RHUCX2 % Inh. at Dose (μM) ([2]; 1 μM): 72 @ 1%; RHUCX2 % Inh. at Dose (μM) ([2]; 10 μM): 99 @ 10%; CAP % Inhib. @ 3 mpk [4]: 60%
–,–,–,"Cc1cc(-c2c(-c3ccc(S(N)(=O)=O)cc3)cnn(-c3cccc(Cl)c3)c2=O)ccc1F [Example 391, 2-(3-Chlorophenyl)-4-(4-fluoro-3-methylphenyl)-5-[4-(aminosulfonpl)phenyl]-3(2h)-pyridazinone]",–,CAP % Inhib. @ 3 mpk [4]: 61%
80 to 85 °C,91%,–,"CC(C)COc1c(-c2ccc(S(N)(=O)=O)cc2)cnn(-c2cccc(Cl)c2)c1=O [Example 395, 2-(3-Chlorophenyl)-4-(2-methylpropoxy)-5-[4-(aminosulfonyl)phenyl]-3(2H)-pyridazinone]",71%,"inhibition at 10 µM ([1]; 10 μM): 35%; inhibition at 0.01 µM [2, 6]: 34%; inhibition at 0.1 µM [2, 7]: 77%; inhibition at 1 µM [2, 8]: 93%"
154 to 156 °C,90%,198 nM,"CC(C)CCc1c(-c2ccc(S(N)(=O)=O)cc2)cnn(-c2ccc(F)c(Cl)c2)c1=O [Example 405, 2-(3-Chloro-4-fluorophenyl)-4-(3-methylbutyl)-5-[4-(aminosulfonyl)phenyl]-3(2H)-pyridazinone]",53%,inhibition at 10 µM ([1]; 10 μM): 61%
224 to 226 °C,32%,170 nM,NS(=O)(=O)c1ccc(-c2cnn(-c3ccc(F)c(F)c3)c(=O)c2Oc2ccc(F)cc2)cc1F [Example 407],61%,–
158 to 161 °C,33%,–,"CS(=O)(=O)c1ccc(-c2cnn(-c3cccc(Cl)c3)c(=O)c2OCC2CC2)cc1 [Example 418, 2-(3-Chlorophenyl)-4-cyclopropanemethoxy-5-[4-(methylsulfonyl)phenyl]-3(2H)-pyridazinone]",–,"inhibition at 0.025 µM ([2]; 0.025 μM, read-out: RHUCX2 % Inh. at Dose): 53%; inhibition at 0.1 µM [2, 7]: 52%; inhibition at 1 µM [2, 8]: 85%; IC50 [5]: 14.2 µM; IC50 [3]: 250 nM"
124 to 128 °C,12%,100 nM,"CS(=O)(=O)c1ccc(-c2cnn(-c3cccc(Cl)c3)c(=O)c2OCCC2CC2)cc1 [Example 419, 2-(3-Chlorophenyl)-4-(2-cyclopropane-1-ethoxy)-5-[4-(methylsulfonyl)phenyl]-3(2H)-pyridazinone]",48%,–
110 to 112 °C,–,–,"C=C(C)CCOc1c(-c2ccc(S(C)(=O)=O)cc2)cnn(-c2cccc(Cl)c2)c1=O [Example 427, 2-(3-Chlorophenyl)-4-(3-methyl-3-butenoxy)-5-[4-(methylsulfonyl)phenyl]-3(2H)-pyridazinone]",78%,–
–,–,–,CC(C)(O)COc1c(-c2ccc(S(N)(=O)=O)cc2)cnn(-c2ccc(F)c(F)c2)c1=O [Example 459],–,CAP % Inhib. @ 3 mpk [4]: 45%
–,–,–,"C[C@@H](CO)COc1c(-c2ccc(S(N)(=O)=O)cc2)cnn(-c2ccc(F)c(F)c2)c1=O [Example 464, (S)-2-(3,4-Difluorophenyl)-4-(3-hydroxy-2-methyl-1-propoxy)-5-[4-(aminosulfonyl)phenyl]-3(2H)-pyridazinone]",70%,–

Molecule,melting point,inhibition at 100 µM ([1]; 100 μM),IC50 [2],inhibition in vivo at 3 mg/kg [4],other results
"COC(C)CCOc1c(-c2ccc(S(C)(=O)=O)cc2)cnn(-c2ccc(F)c(F)c2)c1=O (stereo not shown) [Example 353, 2-(3,4-Difluorophenyl)-4-[3-(methoxy)butoxy]-5-[4-(methylsulfonyl)phenyl]-3(2H)-pyridazinone]",99 to 101 °C,6%,826 nM,0%,–
